Assay: Odor detection threshold (ODT)
Details: for ODT: Table 9
Excerpt: Within these defined water-release groups, odorants are then further described based on their experimentally determined odor detection thresholds (ODT) to further characterize the odor impact or olfactive intensity of a citrus and other olfactive types within the herein-described released group of odorants.
Upon their release in headspace, odorants are detected based on their odor detection threshold values. Odor detection thresholds are defined as the lowest concentration of odorants in a selected medium (air or water) to be detected. By including odor values of odorants in the model, one can further improve on the values for predicted performance of once odorants are released from the partition into the air.
Various databases for experimental odor detection threshold values in various partitions such as water and air are available. See Compilation of Odor and Taste Threshold Values Data, American Society for Testing and Materials, F. A. Fazzalari Editor; Booleans Aroma Chemical Information Service (BACIS)).

Row | SMILES | odt (Table 15) [ppb] | odt (Table 17) [ppb] | odt (Table 11, in ppb) | odt (Table 13, in ppb) | ODT [ppb] | odt (Table 11) [ppb] | odt (Table 13) [ppb]
1 | CCCCC/C=C\CCC=O [CIS 4 DECENAL] | 3.1 | 3.1 |  |  |  |  | 
2 | CCCCCCCC=O [ALDEHYDE C 8 (OCTANAL), OCTANAL] | 4.8 | 4.5 |  |  |  |  | 
3 | CC1=CC(C)C(C=O)CC1 (stereo not shown) [LIGUSTRAL] | 110 | 110 | 110.00 | 110.00 |  |  | 
4 | CCCCCC1C(=O)CCC1CC(=O)OC (stereo not shown) [METHYL DIHYDRO JASMONATE] |  |  |  |  | 0.23 | 0.23 | 0.23
5 | CC(C)CC1CCCC(C)(O)C1 (stereo not shown) [ROSSITOL] | 440 | 120 | 440.00 | 440.00 | 440 |  | 
6 | CCOC(=O)CC1(C)OCCO1 [APPLINAL] |  |  | 55.00 | 55.00 | 55 |  | 
7 | CCOC(=O)C(C)CC (stereo not shown) [Ethyl 2-methylbutyrate] |  |  | 20.00 | 20.00 | 20 |  | 
8 | CCCCCCCCCC=CC=O [MANDARIN ALDEHYDE] |  |  |  |  |  |  | 1.5
9 | CC(C)=CCCC(C)CC#N (stereo not shown) [CITRONELLYL NITRILE] | 71 | 71 | 71.00 | 71.00 | 71 |  | 
10 | CC/C=C\CC/C=C/CO [TRANS 2 CIS 6 NONADENOL, TRANS 2 CIS 6 NONADIENOL] | 1.5 | 1.5 |  |  |  |  | 
11 | CCC(CC)C(=O)N(C)c1cccc(C)c1 [PARADISAMIDE] | 0.6 | 0.6 |  |  |  |  | 0.8
12 | C=CCOC(=O)CCC1CCCCC1 [ALLYL CYCLOHXYL PROPIONATE, ALLYL CYCLOHEXYL PROPIONATE] |  |  | 81.00 | 61.00 | 81 |  | 
13 | CC(C)=CCCC(C)=CC=O [CITRAL] |  |  | 12.00 | 12.00 |  |  | 
14 | C=CC(C)CCCC(C)(C)O (stereo not shown) [DIHYDROMYRCENOL] | 810 | 810 | 819.00 | 810.00 | 810 |  | 
15 | CCCCCCOC(C)=O [HEXYL ACETATE] |  |  | 550.00 | 950.00 | 950 |  | 
16 | CCCCCCCCCCCC#N [LAURONITRILE] |  |  |  |  |  |  | 6.7
17 | CC(C)=CCCC(C)CC=O (stereo not shown) [CITRONELLAL] | 33 | 33 | 33.00 | 33.00 |  |  | 
18 | CC(=O)OC(C)c1ccccc1 (stereo not shown) [STRALLYL ACETATE, STYRALLYL ACETATE] | 110 | 110 |  |  |  |  | 
19 | CC1=CCC(C=CC(C)C(C)O)C1(C)C (stereo in doubt) [EBANOL] |  |  | 54.00 | 54.00 | 54 |  | 

Row | SMILES | odt (Table 15) [ppb] | odt (Table 17) [ppb] | odt (Table 11, in ppb) | odt (Table 13, in ppb) | ODT [ppb] | odt (Table 11) [ppb] | odt (Table 13) [ppb]
20 | CCCCCCCCCCC=O [ALDEHYDE C11] |  |  |  |  |  |  | 7.7
21 | C=CC(C)(O)CCC=C(C)CC (mixture of isomers) [ETHYL LINALOOL] | 120 | 440 | 120.00 | 120.00 | 120 |  | 
22 | CCCCCCCCCCCC=O [ALDEHYDE C12 (DODECANAL), DODECANAL] | 17 | 17 |  |  |  |  | 
23 | CCCCCCCCCC=O [ALDEHYDE C 10 (DECANAL), DECANAL] | 8.7 | 6.7 |  |  |  |  | 
24 | CCOC(=O)CC(C)=O [ETHYL ACETOACETATE] |  |  | 55.00 | 55.00 | 54 |  | 
25 | CCC(C)C(=O)N(C)c1ccccc1 (stereo not shown) [GARDAMIDE] | 24 | 24 | 24.00 | 24.00 | 24 |  | 
26 | CC(CC=O)CCc1ccccc1 (stereo not shown) [MEFRANAL] | 17 | 17 | 17.00 | 17.00 | 17 |  | 
27 | CC(C)=CCCC(C)CCO (stereo not shown) [CITRONELLOL] |  |  | 29.00 | 29.00 |  |  | 
28 | CC1CC(C)(c2ccccc2)CO1 (stereo not shown) [RHUBAFURAN] | 440 | 440 | 440.00 | 440.00 |  |  | 
29 | CC/C=C\CC/C=C/C=O [TRANS 2 CIS 6 NONADENAL, TRANS 2 CIS 6 NONADIENAL] | 0.2 | 0.2 |  |  |  |  | 
30 | CCCCCCCCCCC=CC#N [TRIDECEN 2 NITRILE] | 8.7 | 6.7 |  |  |  |  | 
31 | CCC(C)(O)CCCC(C)C (stereo not shown) [TETRAHYDROLINALOOL] |  |  | 380.00 | 380.00 | 380 |  | 
32 | CC/C=C\CCOC(=O)c1ccccc1O [CIS-3-HEXENYL SALICYLATE] | 1.9 | 1.9 |  |  | 1.9 | 1.9 | 1.8
33 | C=CC(C)(O)CCC=C(C)C (stereo not shown) [LINALOOL, linalool] | 20 | 20 |  |  |  |  | 
34 | CC(C)=CCCC(C)C=O (stereo not shown) [MELONAL] | 1.5 | 1.5 |  |  |  |  | 
35 | CC/C=C\CCOC(C)=O [CIS-3-HEXENYL ACETATE] | 170 | 170 | 170.00 | 170.00 | 170 |  | 
36 | C=C(C)[C@H]1CC=C(C)CC1 [d-LIMONINE, d-1-Methyl-4-isopropenyl-1-cyclohexene] | 430 | 430 | 430.00 | 430.00 | 430 |  | 
37 | CCCCCCC#CC(=O)OC [METHYL OCTINE CARBONATE] | 9.7 | 8.7 |  |  |  |  | 
38 | CCC=C(C)C(O)CCCCC (stereo not shown) [UNDECAVERTOL, 4-Methyl-3-decen-5-ol] | 28 | 28 |  |  |  |  | 

Reference: US20100087351A1, “Perfumes for Linear Citrus Release in Rinse-Off Systems” (Quest International Services B.V., priority 2007, published 2010)
